From patent US20220040183A1, “USE OF INHIBITORS OF STRESS GRANULE FORMATION FOR TARGETING THE REGULATION OF IMMUNE RESPONSES” (INSERM (Institut National de la Santé et de la Recherche …, priority 2018, published 2022)

Tested on: PD-1, LAG3 and TIM3 expression by CD3+ T cells
Assay: Cell-based assay of immune checkpoint expression by T lymphocytes (flow cytometry)
Design: species or system human
Settings: for PD-1, LAG3 and TIM3 expression by CD3+ T cells: PBMC activated with CD3/CD28 antibodies-coated beads, stimulated for 3 days, FIG. 4; for co-expression profile of PD-1, LAG3 and TIM3 immune checkpoint receptors on activated CD3+ T cells: healthy donors PBMC, FIG. 5, representative of n=6
Excerpt: PBMC were obtained from human healthy donors (Etablissement Français du Sang, Toulouse, France) after Ficoll-Hypaque (GE Healthcare) density centrifugation and cultured in RPMI 1640 medium (ThermoFisher Scientific) supplemented with 10% fetal bovine serum (ThermoFisher Scientific) and L-glutamine (SIGMA Aldrich).
Cell-Based Assay of Immune Checkpoint Expression by T Lymphocytes.
PBMC isolated from healthy donors were activated with CD3/CD28 antibodies-coated beads (ThermoFisher Scientific). When drugs were used (A-92 (1 μM) or GSK2606414 (GSK, 10 μM)), they were added simultaneously to the stimulation. After 3 days of in vitro culture, cells were processed for qRT-PCR, immunoblotting or flow cytometry analysis.

Structure (SMILES) | PD-1, LAG3 and TIM3 expression by CD3+ T cells (A-92 1 μM) | co-expression profile of PD-1, LAG3 and TIM3 immune checkpoint receptors on activated CD3+ T cells (A-92 1 μM) | PD-1, LAG3 and TIM3 expression by CD3+ T cells (GSK2606414 10 μM) | co-expression profile of PD-1, LAG3 and TIM3 immune checkpoint receptors on activated CD3+ T cells (GSK2606414 10 μM)
c1nn(C2CCOCC2)cc1Nc1ncc2nnn(-c3ccc4cn[nH]c4c3)c2n1 [A-92, 3-(1H-indazol-6-yl)-N-[1-(oxan-4-yl)pyrazol-4-yl]triazolo[4,5-d]pyrimidin-5-amine] | impair immune checkpoints expression | impair immune checkpoints expression simultaneously |  | 
Cn1cc(-c2ccc3c(c2)CCN3C(=O)Cc2cccc(C(F)(F)F)c2)c2c(N)ncnc21 [GSK2606414, 1-[5-(4-amino-7-methylpyrrolo[2,3-d]pyrimidin-5-yl)-2,3-dihydroindol-1-yl]-2-[3-(trifluoromethyl)phenyl]ethanone] |  |  | impair immune checkpoints expression | impair immune checkpoints expression simultaneously
